# Marks after values point to notes of the source that are not given here.
# How the values were obtained:
# [1] = system: bacteria; assay: Antibacterial activity, strain not singled out; details: in words
# Experimental: Minimal Inhibitory Concentrations (MICs) were measured against Gram-negative Escherichia coli (BL21) and Gram-positive Bacillus subtilis (ATCC 663), Staphylococcus aureus (ATCC 6538), Streptococcus pyogenes (ATCC 19615) using the broth microdilution method.[2] Specifically, bacteria from a single colony were grown overnight in LB broth at 37° C. with agitation. An aliquot was taken and diluted (1:50 for E. coli, 1:20 for B. subtilis, 1:200 for S. aureus, 1: 10 for S. pyogenes) in fresh broth and cultured for another ˜3 hours until the cells reach mid-logarithmic phase (OD590-0.6). The cells were diluted to a concentration of ˜5×10^5 Colony Forming Units/ml (CFU/ml) and the bacteria suspension (200 μL) was added to each well of a sterile 96-well plate. Serial diluted (2-fold) peptides in DMSO (2 μL) were added in triplicates. The plates were shaken for 30 seconds to mix the peptide solution well with the broth, and then incubated at 37° C. overnight before the absorbance at 590 nm was monitored using a microtiter plate reader (SPECTRAMAX M5, Molecular Devices, Sunnyvale, Calif.). The viability of the bacteria was normalized as % survival=(ODpep,bac−ODbroth only)/(ODDMSO, bac-ODbroth only)×100%.
# [2] = FIG. 2
# Experimental: Table printed on a drawing sheet, FIG. 2
# Water solubility of gA variants is determined by Trp absorbance at 280 nm and summarized in the inserted table. Buffer used: 10 mM HEPES containing 1% DMSO. The solubility of gA-WT was obtained from reference.
# First reader's note: Saturation concentration (water solubility); the gA-WT cell carries its own unit (nM), and the marker [a] is not explained on the sheet.
# [3] = system: Staphylococcus aureus (ATCC 6538)
# [4] = system: Bacillus subtilis (ATCC 663)
# [5] = physchem; assay type: physicochemical
# Experimental: Peptide solubility in 10 mM HEPES buffer with 1% DMSO was measured by monitoring tryptophan absorbance. A concentrated (6.0-8.0 mM) peptide stock solution in DMSO was diluted 100 times (5 μL of the stock into 500 jtl of 10 mM HEPES buffer, pH 7.0). The mixture was sonicated for 30 mins and then subject to centrifugation (14,000 rpm, 10 mins) to remove possible precipitate. The supernatant (400 μL) was transferred to a quartz cuvette and the peptide concentration was determined by tryptophan absorbance at 280 nm (ε=22760 M−1 cm-1). The UV/Vis spectra of the supernatant can be seen in FIG. 1 and FIG. 5.
# [6] = system: human red blood cells (hRBCs); assay: Haemoglobin release from human red blood cells; assay type: cell-based
# Experimental: Fresh human red blood cells (hRBCs) were centrifuged at 3500 rpm and washed with PBS buffer until the supernatant was clear. The hRBCs were then resuspended and diluted to a final concentration of 1% (v/v) in PBS and used immediately. 15 μL of serial dilution (2-fold) of peptides in DMSO or DMSO alone as a negative control were added to 1.5 mL of hRBCs in PBS. The resulting mixture was gently shaken to mix well and incubated at 37° C. for 1 hr, followed by centrifugation at 3500 rpm for 10 min using tabletop centrifuge. Aliquots (50 μL) of the supernatant (in triplicates) were transferred into a sterile 96-well plate containing 50 μL of H2O in each well. Release of hemoglobin was monitored at 415 nm using a microtiter plate reader. Percentage hemolysis was calculated using percentage hemolysis=100·(A415, peptide-A415,DMSO)/(A415, complete hemolysis-A415, DMSO), where complete hemolysis is achieved by mixing hRBCs with 1% TritonX-100.
# [7] = system: Streptococcus pyogenes (ATCC 19615)
structure (smiles),measurement,setting,value
"CC(C)C[C@@H](NC(=O)[C@H](C)NC(=O)CNC(=O)[C@@H](NC=O)C(C)C)C(=O)N[C@@H](C)C(=O)N[C@@H](C(=O)N[C@H](C(=O)N[C@@H](C(=O)N[C@@H](Cc1c[nH]c2ccccc12)C(=O)N[C@H](CCCNC(=N)N)C(=O)N[C@@H](Cc1c[nH]c2ccccc12)C(=O)N[C@H](CCCNC(=N)N)C(=O)N[C@@H](Cc1c[nH]c2ccccc12)C(=O)N[C@H](CCCNC(=N)N)C(=O)N[C@@H](Cc1c[nH]c2ccccc12)C(=O)NCCO)C(C)C)C(C)C)C(C)C (racemic) [gA-6, formyl-V-G-A-dL-A-dV-V-dV-W-dR-W-dR-W-dR-W-NHCH2CH2OH]",antibacterial activity / MIC,[1],low μM potency
same,SAT. CONC/μM,[2],43 µM
same,MIC relative to wild-type Gramicidin A,[3]; S. Aureus,much higher MIC
same,MICs S. Aureus,"[3]; Table 2, standard micro-dilution",>10 ^[e] μM
same,MICs B. Subtilius,[4]; ATCC 663,2.5~5 μM
same,MIC relative to wild-type Gramicidin A,[4]; B. subtilis,equivalent to or ˜2-fold higher
same,"water solubility, fold higher than wild-type Gramicidin A",[5],~800 fold
same,HC50 (50% haemoglobin leakage relative to 1% TritonX-100),[6],20 µM
same,MICs S. Pyogenes,[7]; ATCC 19615,1.25 µM
same,MIC relative to wild-type Gramicidin A,[7]; S. Pyogenes,equivalent to or ˜2-fold higher

# Source: patent publication US9243037B2, “Gramicidin a mutants that function as antibiotics with improved solubility and reduced toxicity” (Trustees of Boston College, priority 2011, dated 2016)
